Source: US20100152622A1, “MOTOR PHENOMENON MEASUREMENT” (priority 2007, published 2010)
Entries after “also recorded” stand apart in the source; their conditions may differ.

Experiments:
schizophrenia patients [1] = details: for average normalized jerk (ANJ) score compared between medication groups / average normalized jerk (ANJ) score compared with healthy subjects: handwriting dysfluency; for average normalized jerk (ANJ) score compared between medication groups: marker of TD/EPS, 9 handwriting tasks, dominant hand, 1, 2, 4 cm, versus other medications; for average normalized jerk (ANJ) score compared with healthy subjects: medication group versus normal healthy subjects
schizophrenia patients [2] = assay: Handwriting velocity scaling (VS) in patients grouped by antipsychotic medication; format: in vivo, human; details: lower VS scores indicate more parkinsonian bradykinesia; loops of 1, 2, 4 cm
Source text: Lower VS scores indicate more parkinsonian bradykinesia.
This measure expresses the extent to which movements are sped up when size is increased.
One simple and direct measure is the increase of a velocity measure in one stroke (e.g., in cm/s) divided by the increase of size (e.g., in cm). This resulting velocity scaling has a unit of size/duration/size or 1/duration.

schizophrenia patients [3] = assay: Observer-based EPS severity ratings (SAEPS, AIMS, BARS); format: in vivo, human
dopamine receptor = dopamine receptor (Homo sapiens, UniProt P14416); details: PET in schizophrenic patients before and after treatment; cited from earlier work
Sequence of dopamine receptor (P14416 whole entry): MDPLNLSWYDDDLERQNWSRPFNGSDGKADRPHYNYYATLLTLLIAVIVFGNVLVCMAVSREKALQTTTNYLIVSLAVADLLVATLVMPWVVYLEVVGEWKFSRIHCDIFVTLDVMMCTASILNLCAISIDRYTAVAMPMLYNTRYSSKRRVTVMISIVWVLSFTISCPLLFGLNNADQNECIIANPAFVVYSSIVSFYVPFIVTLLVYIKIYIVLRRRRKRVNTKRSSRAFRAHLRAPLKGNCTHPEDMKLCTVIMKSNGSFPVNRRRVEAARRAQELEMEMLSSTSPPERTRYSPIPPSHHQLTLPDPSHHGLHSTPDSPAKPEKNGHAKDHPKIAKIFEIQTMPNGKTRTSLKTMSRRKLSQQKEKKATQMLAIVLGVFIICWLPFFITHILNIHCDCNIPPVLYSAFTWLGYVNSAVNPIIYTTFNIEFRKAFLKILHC

schizophrenia patients [4] = details: in vivo

Row | SMILES | effect of antipsychotic type on average normalized jerk and peak velocity (schizophrenia patients [1]; collapsed across all 14 task conditions) | average normalized jerk (ANJ) score compared between medication groups (schizophrenia patients [1]) | average normalized jerk (ANJ) score compared with healthy subjects (schizophrenia patients [1]) | velocity scaling (VS) score (slope of peak vertical velocity versus vertical size) compared between medication groups (schizophrenia patients [2]) | observer-based EPS assessments: medicated versus unmedicated groups and relationship with dose (schizophrenia patients [3]; conventional ratings) | correlation between observer-based severity ratings and dose (schizophrenia patients [3]; p>0.05) | relationship between reduction in handwriting size (area) and dopamine receptor occupancy (dopamine receptor) | correlation (r) of peak vertical velocity with daily dose (schizophrenia patients [4]) | motor impairment quantified by handwriting movements (schizophrenia patients [4])
1 | O=C1CCc2ccc(OCCCCN3CCN(c4cccc(Cl)c4Cl)CC3)cc2N1 [aripiprazole] | doing worse than others | significantly higher ANJ | significantly higher ANJ scores than healthy subjects | lower VS scores than those on olanzapine or quetiapine; also recorded: lower VS scores than those on other medications |  |  |  |  | 
2 | OCCOCCN1CCN(C2=Nc3ccccc3Sc3ccccc32)CC1 [quetiapine] |  | significantly less abnormality than those treated with aripiprazole or risperidone | did not differ from normal healthy subjects |  |  |  |  |  | 
3 | Cc1nc2n(c(=O)c1CCN1CCC(c3noc4cc(F)ccc34)CC1)CCCC2 [risperidone] |  |  |  |  | not able to detect differences between risperidone-medicated and unmedicated groups or a relationship with risperidone dose | no significant correlations | significant relationship between reduction in handwriting size (expressed by area) and dopamine receptor occupancy | −0.45 | significant motor impairment
